The values that follow are results of earlier work, collected in patent publication US11426447B2, “Neuregulin for the treatment of tumors of the nervous system” (LEIBNIZ-INSTITUT FUR …, priority 2016, dated 2022).

For the data set, the system named is schwannoma. Particulars: cited from earlier work.

In the case of bevacizumab, the “efficacy for schwannoma growth control and hearing improvement” value (NF2 patients (Plotkin et al., 2009)) is reported as “limited efficacy”. Where the note is “human, in vivo”, the side effects result is on record as “severe side effects”.
